In patent US20250262193A1, “Therapeutic Tyrosine Kinase Inhibitors For Multiple Sclerosis and Myasthenia Gravis” (Principia Biopharma Inc., priority 2022, published 2025):

Assays:
[1] = following repeated doses of teriflunomide; cited from earlier work
BCRP = target: T1, BCRP (Homo sapiens, UniProt Q9UNQ0); details: in vitro studies; cited from earlier work
T1 sequence (Q9UNQ0 1-655): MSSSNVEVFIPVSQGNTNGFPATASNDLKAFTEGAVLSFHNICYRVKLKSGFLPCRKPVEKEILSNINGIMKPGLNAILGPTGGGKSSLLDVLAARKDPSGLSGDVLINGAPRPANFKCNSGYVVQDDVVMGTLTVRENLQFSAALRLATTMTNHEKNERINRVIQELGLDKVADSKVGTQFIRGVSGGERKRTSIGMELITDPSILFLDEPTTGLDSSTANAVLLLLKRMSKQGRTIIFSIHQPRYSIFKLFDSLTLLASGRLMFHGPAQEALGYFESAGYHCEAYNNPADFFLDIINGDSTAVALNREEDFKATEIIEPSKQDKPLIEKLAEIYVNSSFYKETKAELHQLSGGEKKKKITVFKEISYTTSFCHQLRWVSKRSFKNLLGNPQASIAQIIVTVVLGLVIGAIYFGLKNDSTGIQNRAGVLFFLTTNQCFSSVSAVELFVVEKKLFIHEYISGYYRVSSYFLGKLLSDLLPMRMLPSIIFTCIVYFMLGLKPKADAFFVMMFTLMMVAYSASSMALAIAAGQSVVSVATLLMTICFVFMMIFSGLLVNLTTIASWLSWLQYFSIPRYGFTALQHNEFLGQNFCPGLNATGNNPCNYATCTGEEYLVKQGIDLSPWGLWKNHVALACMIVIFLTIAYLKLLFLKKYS

[2] = Drug interaction study INT16726: potent CYP2C8 inhibitor gemfibrozil; CYP3A4/CYP2C8 inducer rifampicin, healthy participants; type: in vivo, human
Experimental: (§1) Tolebrutinib is a substrate of the CYP3A4 and CYP2C8 isoenzymes. […] In healthy participants, the potent CYP3A4 and moderate CYP2C8 induction by rifampicin (600 mg once daily for 8 days) decreased tolebrutinib exposure by 6-fold. Therefore, potent and also moderate (based on prediction) CYP3A inducers are not permitted due to their potential to decrease tolebrutinib exposure and efficacy.
(§2) Potent and moderate inducers of CYP3A or potent inhibitors of CYP2C8 hepatic enzymes are not permitted throughout the study (see Appendix 8A [Section 10.8]). • Tolebrutinib: Tolebrutinib is a substrate of the CYP3A4 and CYP2C8 isoenzymes. […] In healthy participants, potent CYP3A4 and moderate CYP2C8 induction by rifampicin (600 mg once daily for 8 days) decreased Tolebrutinib exposure 6-fold (INT16726 study). Therefore, potent and also moderate (based on prediction) CYP3A inducers are not permitted due to their potential to decrease Tolebrutinib exposure and efficacy. See Table 2H for the list of drugs not to be used. • Teriflunomide: Other potent CYP and transporter inducers should be avoided due to their potential to decrease teriflunomide exposure. Rifampicin and other known potent CYP and transporter inducers such as carbamazepine, phenobarbital, phenytoin, avasimibe, lumacaftor, rifapentine, rifabutin, and St John's wort, should be avoided. […]

[3] = Study TDR16862: up to 240 mg once daily for 14 days under fed conditions, healthy participants; type: in vivo, human
Experimental: as §1, §2

[4] = Drug interaction study INT16385: potent CYP3A4 inhibitor itraconazole, healthy participants; type: in vivo, human; details: with potent CYP3A4 inhibitor itraconazole 200 mg once daily for 4 days
[5] = Blood-brain barrier crossing
[6] = Ongoing Phase 3 and LTS studies: safety (drug-induced liver injury); type: in vivo, human
Text: Drug-induced liver injury has been identified in the ongoing tolebrutinib Phase 3 trials. […] Thus, there is a need to mitigate the risk of hepatic injury and provide safe treatment for patients with MS or MG.
All safety summaries will be descriptive; no statistical significance tests will be performed on safety data. This includes treatment-emergent adverse events (TEAEs) and other safety information (eg, clinical laboratory evaluations, electrocardiograms [ECGs], and vital signs). TEAEs are defined as adverse events (AEs) that developed or worsened or became serious during the treatment period. These analyses will be based on the safety population, defined as all participants randomly assigned and exposed to study intervention, regardless of the amount of exposure, analyzed according to the treatment actually received. • Two participants had treatment-emergent transient alanine aminotransferase (ALT) increase >3×ULN, 1 during the 30 mg SAR442168 treatment period (at Week 8, 105 U/L [normal range 6 to 34 U/L]) that returned to normal range within 4 days and 1 during the 60 mg SAR442168 treatment period (at Week 4, 107 U/L [normal range 6 to 34 U/L]). […] All other liver enzyme levels for both participants were within normal ranges during the treatment period; one event was assessed as related and one as unrelated to the study drug by the Investigators. […]

[7] = Phase 2b dose-finding trial DRI15928 in participants with relapsing multiple sclerosis; type: in vivo, human; details: for alanine aminotransferase (ALT): 1 participant, normal range 6 to 34 U/L; for time for ALT to return to normal range: treatment continued
Text: All safety summaries will be descriptive; no statistical significance tests will be performed on safety data. This includes treatment-emergent adverse events (TEAEs) and other safety information (eg, clinical laboratory evaluations, electrocardiograms [ECGs], and vital signs). TEAEs are defined as adverse events (AEs) that developed or worsened or became serious during the treatment period. These analyses will be based on the safety population, defined as all participants randomly assigned and exposed to study intervention, regardless of the amount of exposure, analyzed according to the treatment actually received. • Two participants had treatment-emergent transient alanine aminotransferase (ALT) increase >3×ULN, 1 during the 30 mg SAR442168 treatment period (at Week 8, 105 U/L [normal range 6 to 34 U/L]) that returned to normal range within 4 days and 1 during the 60 mg SAR442168 treatment period (at Week 4, 107 U/L [normal range 6 to 34 U/L]). The participant in the 60 mg group had slightly elevated ALT at screening (48 U/L) and at baseline (50 U/L); ALT levels returned to the normal range in 8 weeks. Both participants continued study treatment during this period. All other liver enzyme levels for both participants were within normal ranges during the treatment period; one event was assessed as related and one as unrelated to the study drug by the Investigators. Both participants completed the DRI15928 study and successfully rolled over to the LTS follow-up study. • One event of mild petechia in a participant (at Week 8 in the SAR442168 30 mg group) and 2 events of mild microscopic hematuria in 2 male participants (1 event at Week 16 in the SAR442168 30 mg group and 1 event on Day 1 in the SAR442168 60 mg group, with occult blood noted in urine) were reported during the treatment period in the SAR442168 Phase 2b trial. The hematology results were clinically insignificant for all 3 participants from the onset of the events. The participant with mild petechia had benign pigmentary lesions noted during screening, and the event was assessed as related to the study drug by the Investigator. The 2 events of mild microscopic hematuria were assessed as unrelated to the study drug.
The choice of the dose of 60 mg of the BTK inhibitor taken with food is based on the results of a Phase 2b dose-finding trial for tolebrutinib in participants with relapsing multiple sclerosis (DRI15928). See for example, Reich, D. S., et al., Safety and efficacy of tolebrutinib, an oral brain-penetrant BTK inhibitor, in relapsing multiple sclerosis: a phase 2b, randomised, double-blind, placebo-controlled trial. Lancet Neurol, 2021. 20(9): p. 729-738.
There were low numbers of AESIs and PCSAs observed.

CYP2C8 = target: T2, CYP2C8 (Homo sapiens, UniProt P10632); assay: Nonclinical drug metabolism studies (CYP substrate); type: in vitro ADME
T2 sequence (P10632 1-490): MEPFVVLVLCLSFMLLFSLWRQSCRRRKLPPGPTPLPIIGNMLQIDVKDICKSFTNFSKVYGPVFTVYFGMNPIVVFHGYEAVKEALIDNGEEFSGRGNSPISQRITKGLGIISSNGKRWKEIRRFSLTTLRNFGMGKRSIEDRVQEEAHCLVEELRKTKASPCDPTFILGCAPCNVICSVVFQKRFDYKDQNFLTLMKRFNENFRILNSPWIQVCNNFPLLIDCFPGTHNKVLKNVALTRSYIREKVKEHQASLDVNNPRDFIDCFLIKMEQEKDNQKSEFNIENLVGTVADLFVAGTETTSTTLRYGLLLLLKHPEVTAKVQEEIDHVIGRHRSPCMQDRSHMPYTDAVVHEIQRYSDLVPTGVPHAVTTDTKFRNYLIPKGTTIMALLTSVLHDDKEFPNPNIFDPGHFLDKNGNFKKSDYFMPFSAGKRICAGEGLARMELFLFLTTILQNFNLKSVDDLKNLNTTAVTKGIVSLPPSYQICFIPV
Experimental: as §1, §2

CYP3A4 = CYP3A4 (Homo sapiens, UniProt P08684); assay: as above; type: in vitro ADME
Experimental: as §1, §2

Chain of CYP3A4 (P08684 whole entry): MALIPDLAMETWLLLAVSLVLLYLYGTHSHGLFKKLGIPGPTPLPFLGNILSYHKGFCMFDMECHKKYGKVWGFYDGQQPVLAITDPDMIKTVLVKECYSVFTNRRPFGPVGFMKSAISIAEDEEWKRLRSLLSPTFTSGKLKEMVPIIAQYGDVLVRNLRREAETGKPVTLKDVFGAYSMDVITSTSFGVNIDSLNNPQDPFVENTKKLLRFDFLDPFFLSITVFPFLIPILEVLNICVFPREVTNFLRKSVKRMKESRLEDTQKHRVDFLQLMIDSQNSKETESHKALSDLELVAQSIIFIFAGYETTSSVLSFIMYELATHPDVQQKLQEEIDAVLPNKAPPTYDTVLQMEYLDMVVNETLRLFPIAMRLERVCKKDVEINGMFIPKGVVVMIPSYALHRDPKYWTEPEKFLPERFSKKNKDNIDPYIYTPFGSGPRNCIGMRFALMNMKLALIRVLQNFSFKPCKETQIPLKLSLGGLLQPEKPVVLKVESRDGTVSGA

C/C(O)=C(\C#N)C(=O)Nc1ccc(C(F)(F)F)cc1 [teriflunomide]
ethinylestradiol and levonorgestrel exposure [1]: Increase | substrate of the efflux transporter BCRP (BCRP): substrate

C=CC(=O)N1CCC[C@@H](n2c(=O)n(-c3ccc(Oc4ccccc4)cc3)c3c(N)nccc32)C1 [tolebrutinib, (R)-1-(1-acryloylpiperidin-3-yl)-4-amino-3-(4-phenoxyphenyl)-1H-imidazo[4,5-c]pyridin-2(3H)-one]
decrease of exposure ([2]; potent CYP3A4 and moderate CYP2C8 induction by rifampicin 600 mg once daily for 8 days): 6 fold | increase of AUC exposure ([2]; with potent CYP2C8 inhibitor gemfibrozil 600 mg twice daily for 6 days): 8.4 fold | safety and tolerability profile [3]: satisfactory | increase of area under the curve (AUC) exposure [4]: 1.8 fold | blood-brain barrier crossing [5]: crosses the blood-brain barrier | tolerability ([6]; ongoing Phase 3 and LTS studies, to date): generally well tolerated | reversibility of DILI / liver enzyme elevation after treatment discontinuation ([6]; ongoing Phase 3 trials): appear reversible | alanine aminotransferase (ALT) ([7]; 30 mg treatment period, Week 8): 105 U/L | alanine aminotransferase (ALT) ([7]; 60 mg treatment period, Week 4, 48 U/L at screening, 50 U/L at baseline): 107 U/L | events of mild microscopic hematuria ([7]; 2 male participants: Week 16 in 30 mg group, Day 1 in 60 mg group, resolved spontaneously): 2 events | cardiac arrhythmia ([7]; ECG monitoring): no clinically significant cardiac arrhythmia was observed | AESIs and PCSAs observed ([7]; Phase 2b): low numbers | correlation between dose administered and number of TEAEs ([7]; Phase 2b): no correlation | new risks identified ([7]; Phase 2b): no new risks were identified | most frequently reported infections (≥3 events total) ([7]; Phase 2b treatment period): upper respiratory tract infection, nasopharyngitis, gastroenteritis, and respiratory tract infection | severe infections ([7]; Phase 2b treatment period): No severe infections occurred | participants with treatment-emergent transient ALT increase >3×ULN ([7]; Phase 2b, 1 at 30 mg, 1 at 60 mg): Two | food effect: increase in AUC0-24 ([7]; fed status, Phase 2b PK data): approximately 2 fold | events of mild petechia ([7]; female participant, Week 8, 30 mg group, resolved spontaneously): One | cytopenia, including thrombocytopenia and neutropenia ([7]; hematologic laboratory results): No clinically significant cytopenia | correlation between treatment response and exposure ([7]; new gadolinium-enhancing T1-hyperintense lesions after 12 weeks of treatment): higher exposure was associated with low numbers of new gadolinium-enhancing T1-hyperintense lesions | time for ALT to return to normal range ([7]; participant of the 30 mg treatment period): ≤ 4 days | time for ALT to return to normal range ([7]; participant of the 60 mg group): 8 weeks | most common events (preferred terms) ([7]; tolebrutinib treatment arms, Phase 2b): headache, upper respiratory tract infection, and nasopharyngitis | substrate of CYP2C8 isoenzyme (CYP2C8): substrate | substrate of CYP3A4 isoenzyme (CYP3A4): substrate
